US20210300932A1, “CYCLIC PEPTIDES TARGETING ALPHA-4-BETA-7 INTEGRIN” (Zealand Pharma A/S, priority 2015, published 2021)

Key:
[1] = biological target: T1, Recombinant human integrin α4β7 (Homo sapiens, UniProt P13612+P26010, DEL724-798); test: Integrin α4β7—MAdCAM-1 ELISA competition assay; type: binding; settings: ratio a4b1 ELISA IC50 / a4b7 ELISA IC50
T1 construct: purchased R&D Systems 5397-A3-050
T1 sequence (P13612 34-977 limits assumed): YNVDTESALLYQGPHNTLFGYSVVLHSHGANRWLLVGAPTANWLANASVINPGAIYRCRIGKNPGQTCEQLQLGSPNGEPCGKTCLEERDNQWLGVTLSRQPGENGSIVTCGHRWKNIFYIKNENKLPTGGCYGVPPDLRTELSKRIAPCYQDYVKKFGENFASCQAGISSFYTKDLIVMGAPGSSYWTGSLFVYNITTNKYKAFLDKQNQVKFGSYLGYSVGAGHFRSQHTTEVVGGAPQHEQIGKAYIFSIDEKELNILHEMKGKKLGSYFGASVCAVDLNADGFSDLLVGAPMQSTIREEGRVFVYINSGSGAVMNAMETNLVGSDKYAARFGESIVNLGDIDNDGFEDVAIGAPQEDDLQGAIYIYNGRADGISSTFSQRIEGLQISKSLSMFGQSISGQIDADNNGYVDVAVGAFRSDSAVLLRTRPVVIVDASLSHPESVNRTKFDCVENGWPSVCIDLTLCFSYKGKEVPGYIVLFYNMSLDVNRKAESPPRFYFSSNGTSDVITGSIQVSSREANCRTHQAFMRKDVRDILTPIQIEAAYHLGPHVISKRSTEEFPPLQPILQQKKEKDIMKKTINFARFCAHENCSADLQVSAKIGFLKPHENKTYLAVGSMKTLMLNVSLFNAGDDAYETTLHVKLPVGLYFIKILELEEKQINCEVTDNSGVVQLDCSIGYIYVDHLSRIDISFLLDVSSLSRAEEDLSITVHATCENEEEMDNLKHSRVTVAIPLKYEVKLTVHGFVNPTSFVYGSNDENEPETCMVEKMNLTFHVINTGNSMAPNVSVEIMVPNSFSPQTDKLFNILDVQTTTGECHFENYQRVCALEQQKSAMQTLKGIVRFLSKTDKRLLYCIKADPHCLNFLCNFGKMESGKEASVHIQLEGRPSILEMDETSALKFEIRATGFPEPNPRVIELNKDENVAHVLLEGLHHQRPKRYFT
T1 sequence (P26010 20-723 limits assumed): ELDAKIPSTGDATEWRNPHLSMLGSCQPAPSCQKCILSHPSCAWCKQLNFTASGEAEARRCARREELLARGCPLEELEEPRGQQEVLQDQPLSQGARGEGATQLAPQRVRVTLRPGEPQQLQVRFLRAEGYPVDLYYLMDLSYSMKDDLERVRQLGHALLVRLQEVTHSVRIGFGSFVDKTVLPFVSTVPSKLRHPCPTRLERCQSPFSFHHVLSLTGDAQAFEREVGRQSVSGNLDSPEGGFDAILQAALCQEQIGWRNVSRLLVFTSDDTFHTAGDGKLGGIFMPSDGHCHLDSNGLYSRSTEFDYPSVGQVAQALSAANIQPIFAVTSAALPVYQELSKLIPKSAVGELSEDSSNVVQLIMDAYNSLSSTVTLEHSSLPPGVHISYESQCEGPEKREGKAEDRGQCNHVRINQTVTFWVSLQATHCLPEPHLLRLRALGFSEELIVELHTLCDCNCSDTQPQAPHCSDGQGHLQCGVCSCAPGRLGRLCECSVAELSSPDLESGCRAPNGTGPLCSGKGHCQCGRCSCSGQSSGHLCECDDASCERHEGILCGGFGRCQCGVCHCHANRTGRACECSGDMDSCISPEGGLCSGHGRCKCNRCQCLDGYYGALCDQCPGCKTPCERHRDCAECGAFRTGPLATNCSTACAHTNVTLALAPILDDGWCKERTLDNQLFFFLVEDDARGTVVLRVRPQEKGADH
Description: Integrin α4β7—MAdCAM-1 ELISA Competition Assay
Protocol • 1.1 Preparation of α4β7. • 1.1.1 Add 500 μL of PBS to the vial. […] Mix by inversion before use. Keep at 4° C. for up to 1 month. • Final concentration is 100 pg/mL • 1.1 Preparation of MadCam-Fc. • 1.1.1 Add 500 μL of Assay buffer to the vial. […] Mix by inversion before use.

[2] = biological target: T2, CYP1A2 (Homo sapiens, UniProt P05177); test: in vitro
T2 sequence (P05177 1-516): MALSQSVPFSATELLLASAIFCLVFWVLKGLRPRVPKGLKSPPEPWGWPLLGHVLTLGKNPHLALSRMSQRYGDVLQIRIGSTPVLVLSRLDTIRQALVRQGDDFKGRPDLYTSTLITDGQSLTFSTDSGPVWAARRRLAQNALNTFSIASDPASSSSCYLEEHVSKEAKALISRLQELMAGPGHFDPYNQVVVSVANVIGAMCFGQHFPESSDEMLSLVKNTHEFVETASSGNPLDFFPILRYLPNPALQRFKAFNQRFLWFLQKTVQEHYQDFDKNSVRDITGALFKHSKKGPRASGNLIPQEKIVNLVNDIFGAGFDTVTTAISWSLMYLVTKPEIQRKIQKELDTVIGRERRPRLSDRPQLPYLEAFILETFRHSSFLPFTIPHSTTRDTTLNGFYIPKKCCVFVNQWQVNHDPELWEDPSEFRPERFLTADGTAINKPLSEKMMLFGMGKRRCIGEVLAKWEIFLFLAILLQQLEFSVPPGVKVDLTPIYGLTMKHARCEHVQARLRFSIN
Description: (§1) Cytochrome P450 Inhibition Assay
(§2) Analyses were performed using standard LC/MS/MS protocols.

[3] = biological target: CYP3A4 (Homo sapiens, UniProt P08684); test: in vitro
Description: as §1, §2

[4] = biological target: CYP2C9 (Homo sapiens, UniProt P11712); test: in vitro
Description: as §1, §2

[5] = tested on: plasma proteins; test: in vitro; settings: CD-1, mouse
Description: (§3) An equilibrium dialysis (HTDialysis) method was used employing 50% plasma collected from CD-1 mice or Sprague-Dawley rats and incubated with K2EDTA. Test articles were assessed at 1 microM concentration in three replicates. Incubation time as 5 hours and plasma and buffer standards were assessed using LC/MS/MS. Percentage recovery was calculated as (Cbuffer+Cplasma)/[average]Cinitial, [average]Cinitial being measured in triplicate from the test samples prior to dialysis. Percentage of compound unbound was calculated as Cbuffer/Cplasma.

[6] = in vitro; settings: Control buffer/Buffer at 0.1 uM % Recovery
Description: as §3

[7] = biological target: CYP2D6 (Homo sapiens, UniProt P10635); test: in vitro
[8] = tested on: plasma proteins; test: Plasma protein binding determination, equilibrium dialysis, mouse plasma; settings: CD-1, mouse, % recovery, Mouse plasma, equilibrium dialysis
Description: as §3

[9] = as above; settings: first table; buffer/buffer control
Description: as §3

[10] = mouse, in vivo
Description: (§4) In Vivo Pharmacokinetic Assessments in Rodents
(§5) Oral bioavailability of test compounds was conducted by assessing plasma exposure of following one or two oral doses in mice and, in some cases, comparing said plasma exposure with that following a single intravenous dose of the same compound.
(§6) Body weights were recorded on the day of dosing.
(§7) Food restriction: Animals dosed p.o. were deprived of food overnight and fed ˜2 h following dosing.
(§8) Dosing: The formulation containing the test compound were administered p.o. by gavage with disposable feeding needles.
(§9) Sample collection: Terminal blood and tissue samples were collected under O2/CO2 anesthesia by cardiac puncture.
(§10) Sample processing/storage: All blood samples were transferred into K2EDTA tubes on wet ice and centrifuged within 5 min (3200×g for 5 min at 4° C.) to obtain plasma. Samples were stored frozen at −80° C. until bioanalysis.
(§11) Bioanalytical Method Qualification and Sample Analysis:
(§12) Instrumentation: AB Sciex API 4000 Q-TRAP MS/MS system equipped with an Agilent LC system with a binary pump, a solvent degasser, a thermostatted column compartment, a CTC autosampler and a divert valve installed between the column and mass spectrometer inlet.

[11] = tested on: DSS experimental model of ulcerative colitis; test: 8-Day efficacy study in DSS model (therapeutic); type: in vivo, C57BI/6 mice; settings: 40 mg/kg p.o.
Text: The STDs in ascending order bracketing the study samples and dosing solutions • 1. The study samples • 2.
Description of Tested Compounds
Animals. Female C57BI/6 mice (Charles River, St-Constant, Qc), weighting 16-19 g at delivery were used for this study. Following arrival in the animal facility, all animals were subjected to a general health evaluation. An acclimation period of 7-14 days was allowed before the beginning of the study.
Oral dosing of the test article and the vehicle. From Day 5 to Day 8, nacellins and the vehicle were administered as a single slow bolus (over approximately 5 seconds) via oral route (p.o.), according to the procedure of administration of solution by gavage: the animal was firmly restrained. A bulb-tipped gastric gavage needle of 22G was passed through the side of the mouth and was advanced towards the oesophagus. The test articles and the vehicle were dosed orally at 5 mL/kg.
Intraperitoneal dosing of the test articles and the vehicle. On day 5, DATK32 antibody was administered in only on Day 5, as a single slow bolus (over approximately 5 seconds) via the i.p. route. […] Intraperitoneal administration was performed accordingly to the following procedure: the mouse was restrained manually and held with the head and body tilted downward. The tip of the needle (27 G) was inserted through the skin and just past the abdominal wall. A short pull back of the plunger of the syringe was done prior to administration of the solution to make sure that the syringe was not inserted in any abdominal organ (fluid would be pulled back into the syringe in this case).
Inflammation Score. Once the mouse was euthanized, the colon was collected and its length was measured. Lesion length was also measured. Colon inflammation was scored based on severity of oedema and ulceration.
Disease Activity Index (DAI) assessment. Body weight and DAI were measured on Day 5 in order to distribute DSS-treated animals in two uniform groups prior dosing. Specific symptoms associated to UC were scored based on the severity of each particular symptoms: 1—blood in stool (negative hemoccult, positive hemoccult, blood traces in stool visible, rectal bleeding); 2—stool consistency (normal, soft but still formed, very soft, diarrhea); 3—posture and fur (normal; ruffled fur; ruffled fur combined to slight hunched posture and slight dehydration; ruffled fur combined to hunched posture, dehydration and altered walking; moribund (euthanasia is mandatory before the animal reach this point). The overall DAI score was the sum of the three parameters (maximum score 9). Body weight measurement and DAI assessment were performed also on Day 8 to evaluate the effect of the treatments.
Collection of samples. On Day 8, five hours after ET02451-01, ET02452-01 and vehicle dosing, the animals were euthanized by cardiac puncture under general anesthesia, according to the “Guide to the Care and Use of Experimental Animals” published by the CCAC. Blood was transferred in a Sarstedt tube containing EDTA. Mesenteric and peripheral (inguinal, auxiliary and brachial) lymph nodes were collected and transferred on ice in corresponding tubes containing cold PBS. Nodes were kept on ice until tissue preparation.
Cell population labeling. Blood was withdrawn by cardiac puncture and collected on EDTA-coated tubes. Mensenteric lymph nodes (MLN) and peripheral lymph nodes (PLN) were also collected. Mononuclear cells from the tissues will be isolated using density gradient (Lympholyte) and they were stained with fluorescent antibodies. […] After washes, cells were fixed using BD Fix Solution. Percentage of different subpopulations of T lymphocytes were then analysed using FACSCalibur cytometer. Antibodies employed were the same as listed for the single-dose PD studies above.

[12] = In vivo pharmacokinetic assessments in rodents; settings: for F: plasma
Description: as §4, §5, §6, §7, §8, §9, §10, §11, §12

[13] = in vivo; settings: male, CD-1, mouse
Description: as §4, §5, §6, §7, §8, §9, §10, §11, §12

CYP2C9, sequence (P11712 whole entry): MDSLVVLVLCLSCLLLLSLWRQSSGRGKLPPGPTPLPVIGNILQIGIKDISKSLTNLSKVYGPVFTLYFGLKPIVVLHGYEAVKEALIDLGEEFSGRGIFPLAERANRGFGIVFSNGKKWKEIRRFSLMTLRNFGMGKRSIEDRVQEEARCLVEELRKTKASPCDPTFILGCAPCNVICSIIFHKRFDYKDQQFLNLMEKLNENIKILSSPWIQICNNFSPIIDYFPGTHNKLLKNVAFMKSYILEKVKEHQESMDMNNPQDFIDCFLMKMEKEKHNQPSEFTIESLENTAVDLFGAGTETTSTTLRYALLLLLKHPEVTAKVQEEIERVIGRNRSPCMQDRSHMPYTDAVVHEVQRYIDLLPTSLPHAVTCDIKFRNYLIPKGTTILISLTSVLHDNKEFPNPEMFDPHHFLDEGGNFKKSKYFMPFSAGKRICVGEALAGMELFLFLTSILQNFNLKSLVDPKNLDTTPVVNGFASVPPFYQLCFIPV
CYP3A4, sequence (P08684 whole entry): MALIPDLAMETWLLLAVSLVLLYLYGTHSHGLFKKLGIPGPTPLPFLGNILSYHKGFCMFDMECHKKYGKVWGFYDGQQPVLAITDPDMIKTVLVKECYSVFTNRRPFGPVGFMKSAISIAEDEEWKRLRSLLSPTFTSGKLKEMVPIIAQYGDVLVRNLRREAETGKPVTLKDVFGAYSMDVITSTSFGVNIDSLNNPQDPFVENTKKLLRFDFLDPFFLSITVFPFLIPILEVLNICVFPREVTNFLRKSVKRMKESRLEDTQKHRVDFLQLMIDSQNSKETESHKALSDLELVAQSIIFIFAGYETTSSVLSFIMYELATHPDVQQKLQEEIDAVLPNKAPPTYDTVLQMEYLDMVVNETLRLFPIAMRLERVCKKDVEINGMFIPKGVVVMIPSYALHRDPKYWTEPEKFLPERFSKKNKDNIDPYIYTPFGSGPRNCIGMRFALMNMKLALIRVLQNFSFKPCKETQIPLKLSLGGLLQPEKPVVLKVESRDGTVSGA
CYP2D6, sequence (P10635 whole entry): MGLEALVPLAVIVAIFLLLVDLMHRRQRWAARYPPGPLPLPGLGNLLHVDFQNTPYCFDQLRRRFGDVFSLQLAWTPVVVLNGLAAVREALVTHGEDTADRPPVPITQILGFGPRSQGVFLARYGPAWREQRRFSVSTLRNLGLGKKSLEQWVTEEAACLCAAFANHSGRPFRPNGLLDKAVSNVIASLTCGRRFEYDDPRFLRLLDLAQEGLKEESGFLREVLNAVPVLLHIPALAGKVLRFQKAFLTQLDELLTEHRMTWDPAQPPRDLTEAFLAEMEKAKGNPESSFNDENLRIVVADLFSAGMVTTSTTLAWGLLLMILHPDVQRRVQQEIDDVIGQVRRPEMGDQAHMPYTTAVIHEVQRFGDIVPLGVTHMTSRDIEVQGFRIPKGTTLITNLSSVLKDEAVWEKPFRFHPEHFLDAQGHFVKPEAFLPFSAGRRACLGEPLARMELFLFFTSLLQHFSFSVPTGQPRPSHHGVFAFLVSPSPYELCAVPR

COc1ccccc1-c1ccccc1C[C@@H]1NC(=O)[C@@H]2CCCN2[C@H](C(=O)NC(C)(C)C)[C@H](C)NC(=O)[C@H]([C@@H](C)O)NC(=O)[C@H](CC(=O)O)NC(=O)[C@H](CC(C)C)NC(=O)[C@H]2CCCCN2C1=O [Compound 135]
Selectivity ELISA [1]: 4.9

CC(C)C[C@@H]1NC(=O)[C@H]2CCCCN2C(=O)[C@H](Cc2ccc(O)cc2)N(C)C(=O)[C@@H]2CCCN2[C@H](C(=O)NC(C)(C)C)[C@H](C)NC(=O)[C@H]([C@@H](C)O)NC(=O)[C@H](CC(=O)O)NC1=O [Compound 148]
Selectivity ELISA [1]: 1.2

CC[C@H](C)[C@@H]1NC(=O)[C@H](CC(=O)O)NC(=O)[C@H](CC(C)C)NC(=O)[C@H](Cc2ccc3ccccc3c2)NC(=O)[C@@H]2CCCN2[C@H](C(=O)NC(C)(C)C)[C@H](C)NC1=O [Compound No. 15]
IC50 [2]: > 15 µM
IC50 [3]: > 15 µM
IC50 [4]: > 15 µM
fraction unbound at 5 hours, 1 microM ([5]; % unbound (Cbuffer/Cplasma) 1): 0.1
fraction unbound at 5 hours, 1 microM ([5]; % unbound (Cbuffer/Cplasma) 2): 0.093
fraction unbound at 5 hours, 1 microM ([5]; % unbound (Cbuffer/Cplasma) 3): 0.136
recovery at 5 hours, 0.1 uM [6]: 70%
IC50 [7]: > 15 µM
recovery at 5 hours, 1 microM ([8]; first table): 103%
recovery at 5 hours, 1 microM ([8]; second table): 143%
Control buffer/Buffer at 0.1 uM Cdonor/Creciever [9]: 86%

CC(C)C[C@@H]1NC(=O)c2ccc(-c3ccc(N4CCNCC4)cc3)c(c2)CNC(=O)[C@@H]2CCCN2[C@H](C(=O)NC(C)(C)C)[C@H](C)NC(=O)[C@H]([C@@H](C)O)NC(=O)[C@H](CC(=O)O)NC1=O [Compound No. 340]
oral bioavailability (in words) [10]: significant absorption from the gut and systemic exposure
CD3+CD4+α4β7+ cell population in mesenteric lymph nodes [11]: significant decrease
reduction of lesion length vs vehicle group ([11]; Day 5 to Day 8): significantly reduced the lesion length
reduction of DAI score on Day 8 vs DSS+vehicle ([11]; b.i.d., Day 5 to Day 8): 15%
lesion/colon length ([11]; vehicle group 40%): 12%
half-life in the liver ([12]; following oral dosing 40 mg/kg): ~480 min
AUC(0-t) ([12]; male, CD-1, mouse, in vivo, iv, 5 mg/kg): 778 ng·h/mL
Tmax ([12]; male, CD-1, mouse, in vivo, po, 40 mg/kg): 5 min
half-life ([12]; male, CD-1, mouse, in vivo, po, 40 mg/kg, elimination half-life in plasma, following oral dosing 40 mg/kg): ~30 min
half-life ([12]; male, CD-1, mouse, in vivo, po, 40 mg/kg, half-life in colon, following oral dosing 40 mg/kg): > 1260 min
F ([12]; i.v. 5 mg/kg): 100%
F ([12]; p.o. 40 mg/kg): 11.0%
bioavailability [13]: ~11%
AUC(0-inf) ([13]; iv, 5 mg/kg): 778 ng·h/mL
C0 ([13]; iv, 5 mg/kg): 1410 ng/mL
Cmax ([13]; iv, 5 mg/kg): 1330 ng/mL
MRT inf ([13]; iv, 5 mg/kg): 41.9 min
Vd ([13]; iv, 5 mg/kg): 4.49 L/kg
clearance ([13]; iv, 5 mg/kg): 107 mL/min/kg
half-life ([13]; iv, 5 mg/kg): 120 min
AUC(0-inf) ([13]; po, 40 mg/kg): 690 ng·h/mL
AUC(0-t) ([13]; po, 40 mg/kg): 686 ng·h/mL
MRT inf ([13]; po, 40 mg/kg): 41.3 min
half-life ([13]; po, 40 mg/kg): 32.2 min
